Assay results taken from patent US20040115331A1, “Ximenynic acid compositions, methods for their production and uses thereof” (priority 2002, published 2004).

Test system: enteroendocrine L-cells
Assay: Secretion of satiety inducing peptides (CCK-8, GLP-1) by enteroendocrine L-cells, radio immuno assay
Format: cell-based
Conditions: L-cells incubated 2 h at 37° C in KRB buffer; compared with equal amounts of palmitic acid
Procedure: To estimate the effects of ximenynic acid on satiety we measure the excretion of satiety inducing peptides (CCK-8 and GLP-1 L) by enteroendocrine L-cells. Two days prior to experiment 1*10^6 are cultured in 12-well culture plates. On the day of the experiment supernatants are replaced by Krebs-Ringer bicarbonate (KRB) buffer containing either control or test substances. Prior to the addition the solutions are adjusted to pH 7.2. Cells are incubated for 2 h at 37° C. Following incubation, supernatants are collected and measured by radio immuno assay for the amount of CCK-8 or GLP-1 which has been secreted.

For `CCCCCC/C=C/C#CCCCCCCCC(=O)O` [ximenynic acid, octadeca-trans-11-en-9-ynoic acid], the “release of CCK-8” value was “significantly greater release” and the “release of GLP-1” value was “significantly greater release”.
